Series [1] has as its system P. falciparum multidrug-resistant strains. In words: SYBR Green growth assay, summary over panel of resistant strains. Format: cell-based. Particulars: Plasmodium falciparum. As to the method:
(§1) Healthy blood samples for parasite culture were obtained from voluntary donors (approved under protocol #28176720.9.0000.0011), processed to remove white blood cells, and stored at 2 °C–8 °C for up to 15 days. Parasite strains SB1-A6, 7G8, V1/S, and HB3 were acquired from BEI-MR4, while the ATQ R1 strain, carrying a V259L gene mutation, was generated in-house. Infected erythrocytes were cultured in RPMI 1640 medium supplemented with Hepes, sodium bicarbonate, glucose, Albumax, and gentamicin, […], and incubated in a 5% CO2, 5% O2, and 90% N2 gas mixture at 37 °C with daily medium changes. Parasitemia was monitored using Giemsa-stained blood smears.
Bioassays were conducted with synchronized ring-stage parasites using sorbitol synchronization. Antimalarial compounds were evaluated in 96-well plates, and parasite growth was assessed using a SYBR Green-based fluorescence assay The assays were conducted when the parasite quantity reached at least 70% of the ring stage. […]
To assess parasite growth, the culture medium was replaced with a lysis solution (Trisbase: 49.31%, EDTA: 30.00%, Saponin: 0.16%, Triton: 0.02%) containing the fluorescent dye SYBR Green (Sigma). […] The IC50 values were determined using concentration–response curves generated in GraphPad 8 software. […]

Series [2] in a line: Mitochondrial toxicity, HepG2 cells cultured in glucose or galactose (resazurin). The series is classed as cell-based. Particulars: human, 3.125–50 μM, read-out: cell viability. The method, then: To evaluate mitochondrial toxicity, HepG2 cells were cultured in RPMI-1640 medium under two metabolic conditions: one group was maintained in standard RPMI supplemented with 2 g/L glucose (glucose condition), while the second group was gradually adapted to rely on galactose as the primary energy source. For this adaptation, glucose levels were reduced by 20% every 2 days until reaching a final concentration of 20% of the original glucose amount. On the day of the assay, the […] cells were cultured in glucose-free RPMI medium supplemented with 10 mM galactose. When cells reached 80% confluence, they were detached using 2 mL of trypsin-EDTA solution (0.2 g of EDTA) for 5 min at 37 °C, then resuspended in fresh medium and centrifuged at 100 × g for 1 min. After centrifugation, cells were counted using a Neubauer chamber and seeded at […] per well in 96-well plates containing 180 μL of culture medium. Plates were incubated at 37 °C with 5% CO2 for 12–16 h to allow for cell adhesion. […] After treatment, 40 μL of a 0.15 mg/mL resazurin solution (RSZ) was added to each well and incubated for an additional 5 h. RSZ is a nontoxic, cell-permeable blue dye that is reduced by metabolically active cells to highly fluorescent pink resorufin. Fluorescence was measured using a fluorimeter with excitation/emission at 560/590 nm. Cell viability was calculated relative to untreated controls (set at 100%), determined using GraphPad Prism 8.

Series [3] concerns P. falciparum ATQ_R1 strain. Put plainly: SYBR Green growth assay, asexual blood stages, ATQ_R1 strain. Format: cell-based, Plasmodium falciparum. The settings on record: for IC50: Plasmodium falciparum. As to the method:
as §1
(§2) Bioassays were conducted with synchronized ring-stage parasites using sorbitol synchronization. Antimalarial compounds were evaluated in 96-well plates, and parasite growth was assessed using a SYBR Green-based fluorescence assay The assays were conducted when the parasite quantity reached at least 70% of the ring stage. Compounds were initially added at specific concentrations in the first wells, followed by serial dilution (1:2) ranging from 20 μM to 0.009 μM. Subsequently, a solution containing parasites in RPMI medium at a hematocrit of 2% was added to each well, and the parasites were then incubated for 72 h.
(§3) To assess parasite growth, the culture medium was replaced with a lysis solution (Trisbase: 49.31%, EDTA: 30.00%, Saponin: 0.16%, Triton: 0.02%) containing the fluorescent dye SYBR Green (Sigma). After a 30 min incubation, fluorescence readings were taken to determine the 50% inhibitory concentration (IC50) of parasite growth. The IC50 values were determined using concentration–response curves generated in GraphPad 8 software. Additionally, the resistance index was calculated by comparing IC50 values obtained for the sensitive 3D7 strain with those of the resistant strains.

A further series concerns P. falciparum 7G8 strain. Put plainly: SYBR Green growth assay, asexual blood stages, 7G8 strain. The series is classed as cell-based, Plasmodium falciparum. Particulars: for IC50: Plasmodium falciparum. The method, then:
as §1, §2, §3

Series [4] concerns P. berghei sexual phases in An. stephensi. Put plainly: In vivo transmission-blocking assay, P. berghei infected CD1 mice, An. stephensi. Also noted: species or system Plasmodium berghei. Particulars: 2 doses of 50 mg/kg 12 h apart. The method, then: For this assay, a colony of An. stephensi was used. The lab-reared An. stephensi was kept under controlled conditions, with a temperature of 26 °C ± 1 °C, a 12/12 h light/dark cycle, a relative humidity of 70% ± 10%, and fed a 30% sugar solution as needed.
Female CD1 mice (4 to 6 weeks old) were infected by intraperitoneal inoculation (i.p.) containing 10 million erythrocytes infected with P. berghei expressing the GFP fluorescent protein. After 4 days, when parasites in the sexual stages were detected via Giemsa-stained blood smears, mice with similar gametocytemia and parasitemia were randomly divided into three groups of two animals each. The groups of two mices were treated orally with compound 1 at two doses of 50 mg/kg, spaced 12 h apart. […] Following the second dose, mice were anesthetized and placed in individual cages containing approximately 50 female A. stephensi mosquitoes, which had been starved for 24 h before the assay. Blood feeding lasted for 30 min, after which unfed mosquitoes were removed. Engorged females were maintained in an insectary at 21 ± 1 °C and 60% relative humidity, receiving a 30% glucose solution.
A group of 10 mosquitoes was set aside to assess sporozoite development in salivary glands, following a protocol similar to the one described previously, with dissections performed 21 days postblood meal. Additionally, 10 μL of mouse blood was collected immediately after treatment with the compounds and incubated at room temperature for 15 min. Exflagellation was observed under optical microscopy to evaluate the effect of 4-quinolone-derived molecules on microgametocyte activity.

Series [5] has as its system Plasmodium over mammalian cells. The settings on record: specificity for Plasmodium over mammalian cells; previous studies; cited from earlier work.

The structures appear in SMILES notation. “And” between values parts separate entries of the source, which are not always exact repeats. Identical values can stand only once. Like-named read-outs stand apart in the source and are kept apart here.

In the case of `CCCCCCCCCCCc1cc(=O)c2ccccc2[nH]1` [compound 1, 2-Undecilquinolin-4(1H)-one], the IC50 in series [1] (HB3, read-out: IC50 values) was 60 to 800 nM; in series [1] (TM90C6B, read-out: submicromolar activity), 290 to 790 nM; in series [3] (72 h) it was 600 ± 100 nM; in series [3] (read-out: IC50 (Figure S1)) it was 800 nM; in the series with P. falciparum 7G8 strain (7G8, strain assigned by order of panels, read-out: IC50 (Figure S1)) it was 200 nM; in the series on P. falciparum 7G8 strain (7G8 strain, 72 h, read-out: IC50), 270 ± 10 nM. Further, the viability at 24 h in series [2] (HepG2 cells adapted to galactose, HepG2 in galactose) is less than 0.5%; in series [2] (HepG2 cells cultured in glucose, HepG2 in glucose) it was greater than 50%. In addition, the “RI (resistance index)” value in series [3] (ratio of IC50 ATQ_R1 to 3D7) was 3.0; in the series with P. falciparum 7G8 strain (ratio of IC50 7G8 to 3D7), 1.3. In addition, the “Prevalence of infection in An. stephensi mosquitoes (Positive)” value in series [4] was determined as 70%. Besides, the “reduction in the infection rate (salivary glands)” value in series [4] (21 days postinfection) was determined as 91%. In addition, the “reduction in the number of P. berghei sporozoites (in vivo)” value in series [4] (21 days postinfection, 50 mg/kg) was 91,30% and 91%. Moreover, the “reduction in male exflagellation centers (in vivo)” value in series [4] (blood at mosquito feeding, 50 mg/kg) is 85,17% and 85%. The “selectivity index (SI)” value in series [5] was greater than 120.

The record behind these values is article PMC12631437, “Evaluation of the Activity of 4‑Quinolones against Multi-Life Stages of Plasmodium spp” (ACS Omega, 2025).
